Structures are written as SMILES. Counter-ions that a name gives are not always drawn.

The target in test [1] is T1, IRAK4 (Homo sapiens, UniProt Q9NWZ3).
T1 sequence (Q9NWZ3 1-460): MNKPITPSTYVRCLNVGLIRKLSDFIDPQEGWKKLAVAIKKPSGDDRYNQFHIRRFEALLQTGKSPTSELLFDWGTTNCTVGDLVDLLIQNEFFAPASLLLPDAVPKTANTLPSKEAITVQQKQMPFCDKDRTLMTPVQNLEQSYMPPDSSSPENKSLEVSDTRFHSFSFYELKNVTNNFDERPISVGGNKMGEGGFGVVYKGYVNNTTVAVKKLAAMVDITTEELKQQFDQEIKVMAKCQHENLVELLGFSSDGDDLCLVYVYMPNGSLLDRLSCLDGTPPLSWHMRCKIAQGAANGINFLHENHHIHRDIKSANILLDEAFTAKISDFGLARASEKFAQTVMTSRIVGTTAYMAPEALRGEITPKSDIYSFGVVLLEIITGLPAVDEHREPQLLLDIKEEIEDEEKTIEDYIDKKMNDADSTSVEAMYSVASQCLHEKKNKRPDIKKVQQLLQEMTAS
Briefly: IRAK4 PhosphoSens Biochemical Assay (BIOCHEM). The conditions noted are these: IRAK4 1 nM; ATP and Sox conjugated peptide substrate AQT0326; pH 7.5; room temperature; 240 minutes. The protocol: The PhosphoSens® biochemical assay was performed as described by the vendor (AssayQuant Technologies Inc. Marlborough, MA). A 1.25× stock solution of IRAK4 (PV4002, ThermoFisher Scientific, Waltham, MA) and a 5× stock solution of ATP and Sox conjugated peptide substrate, AQT0326 (CSKS-AQT0326B, AssayQuant Technologies), were prepared in 1× kinase reaction buffer consisting of 50 mM HEPES, pH 7.5, 0.01% Brij-35, 0.5 mM EGTA, 20 mM MgCl2 and 1 mM DTT. 10 μL of the ATP and substrate solution mix, for a final concentration of 200 µM ATP and […] peptide substrate, was added to a Corning 3574 384-well, white, non-binding surface microtiter plate containing 0.5 μL of serially diluted test compounds prepared in DMSO. The reactions were started with the addition of 40 μL of the enzyme solution, for a final IRAK4 concentration of 1 nM, and monitored every 71 seconds for 240 minutes at λEX 360/λEM 485 in a BioTek Synergy H4 plate reader (Agilent Technologies, Santa Clara, CA) at room temperature. The initial linear portions of the progress curves were fit according to a linear equation to yield the slopes and converted to % inhibition based on a value of 100% activity for the no inhibitor treated control. IC50 values of each compound were obtained by fitting the % inhibition-compound concentration curves using Dotmatics software (Dotmatics, Bishops Stortford, Hertfordshire, England),

Test [2] deals with T1, IRAK4. The test can be described thus: ALE THP1 HTRF (IRAK4 HTRF in THP1 cell lysate, Cisbio HTRF kit). Type of test: cell-based. Details: THP1 Homogeneous Time Resolved Fluorescence (ALE THP1 HTRF) Procedure; endogenous in cells; host or cells: THP1. Particulars: anti-IRAK4 d2 / anti-IRAK4 k antibodies. Here is the method:
Cell culture media was prepared in a tissue culture hood in a sterile environment by adding 10% FBS and 1% Penicillin Streptomycin to 500 mL no phenol red RPMI 1640 media. The media was filtered through a Nalgene Bottle Top Filter and stored at 4° C.
For Homogenous Time Resolved Fluorescence (HTRF) assays, a Cisbio HTRF kit was used, which included: Lysis Buffer #1 4×, Blocking Reagent #3 100×, 20× Antibody 1 (Anti-IRAK4 d2), 20× Antibody 2 (Anti-IRAK4 k), and Detection Buffer.
4× Lysis Buffer was stored at 4° C. For use as 1× Lysis buffer, the 4× solution was diluted with de-ionized water (distilled water, Gibco Cat. #15230279) and 100× Blocking Reagent in a 1:3:0.04 volume ratio.
20× Antibody Solution aliquots were stored at −80° C. and the Detection Buffer was stored at 4° C. For use as a 1× Antibody Solution, the 20× Antibody Solution aliquot was diluted with Detection Buffer in a 1:19 volume ratio.
Cells were lysed at room temperature for 45 min with shaking. A BCA protein assay was performed and normalization was conducted to the desired total protein concentration with 1× lysis buffer. Next, 1× Antibody Solutions were prepared by adding 380 μL Detection Buffer to 20 μL 20× Antibody Solution aliquots and mixing well. 1× Antibody Solutions were combined 1:1 and briefly vortexed. For control wells, 20 μL 1× anti IRAK4-k Antibody Solution was saved. The 384-well plate (ProxiPlate-384 Plus, Perkin Elmer Cat. #6008289) was loaded by adding 4 μL of the mixed Antibody Solution to empty wells using a single channel repeater. Using a multi-channel repeater, 16 μL lysate was added per well, and any bubbles that were formed were popped with 20 μL pipette tips and Kimwipe edges. In column 10, triplicates of each control were prepared. In wells A10, B10, and C10, buffer control was prepared by adding 16 μL Lysis Buffer and 4 μL Detection Buffer. In wells D10, E10, and F10, cryptate control was prepared by adding 16 μL Lysis Buffer, 2 μL Detection Buffer, and 2 μL 1× anti-IRAK4-k Antibody Solution. In wells G10, H10, and 110, a negative control was prepared by adding 16 μL Lysis Buffer and 4 μL mixed Antibody Solution. The plate was sealed with a clear seal and covered with an aluminum lid. The plate was spun down at 800 g for 5 min and incubated in the dark at room temperature overnight. The next day, the plate was spun down at 800 g for 5 min. The samples were analyzed by a plate reader (Envision, PerkinElmer) using the Desnor 384 HTRF program.

With `N[C@@H]1C[C@@H](F)CN(c2ccn3ncc(C(=O)Nc4cn(C5CCN(CCN6CCN(c7ccc8c(c7)CN(C7CCC(=O)NC7=O)C8=O)CC6)CC5)nc4C(F)F)c3n2)C1` (stereo partly drawn) [Compound P-38, N-[3-(difluoromethyl)-1-[1-[2-[4-[2-(2,6-dioxo-3-piperidyl)-1-oxo-isoindolin-5-yl]piperazin-1-yl]ethyl]-4-piperidyl]pyrazol-4-yl]-5-[(3R,5R)-3-amino-5-fluoro-1-piperidyl]pyrazolo[1,5-a]pyrimidine-3-carboxamide], the IC50 at IRAK4 [1] is less than 0.5 nM. Besides, at IRAK4 [2], the EC50 came out at 6 nM and the “ALE THP1 HTRF YMIN” value is given as 10%.

`N[C@@H]1C[C@@H](F)CN(c2ccn3ncc(C(=O)Nc4cn([C@H]5CC[C@H](C(=O)NC6CCN(c7ccc8c(c7)C(=O)N(C7CCC(=O)NC7=O)C8)CC6)CC5)nc4C(F)F)c3n2)C1` (stereo partly drawn) [Compound P-25]: on IRAK4 [1], the IC50 was less than 0.5 nM. On IRAK4 [2], the EC50 was 7 nM and the “ALE THP1 HTRF YMIN” value was found to be 11%.

On to `N[C@@H]1C[C@@H](F)CN(c2ccn3ncc(C(=O)Nc4cn([C@H]5CC[C@H](C(=O)NC6CCN(c7ccc8c(c7)C(=O)N(C7CCC(=O)NC7=O)C8=O)CC6)CC5)nc4C(F)(F)F)c3n2)C1` (stereo partly drawn) [Compound P-20], for which the IC50 at IRAK4 [1] is less than 0.5 nM. On IRAK4 [2], the EC50 worked out at 11 nM and the “ALE THP1 HTRF YMIN” value was 22%.

Regarding `N#Cc1nn([C@H]2CC[C@H](C(=O)NC3CCN(c4ccc5c(c4)C(=O)N(C4CCC(=O)NC4=O)C5=O)CC3)CC2)cc1NC(=O)c1cnn2ccc(N3C[C@H](N)C[C@@H](F)C3)nc12` (stereo partly drawn) [Compound P-23], the IC50 at IRAK4 [1] was less than 0.5 nM. Moreover, on IRAK4 [2], the EC50 amounted to 8 nM and the “ALE THP1 HTRF YMIN” value was 20%.

Take `O=C1CCC(N2C(=O)c3ccc(N4CCN(C(=O)[C@H]5CC[C@H](n6cc(NC(=O)c7cnn8ccc(N9CCNCC9)nc78)c(C(F)(F)F)n6)CC5)CC4)cc3C2=O)C(=O)N1` (stereo partly drawn) [Compound P-14]: the IC50 at IRAK4 [1] is 1.6 nM. Also, on IRAK4 [2], the response was half-maximal at 10000 nM (EC50) and the “ALE THP1 HTRF YMIN” value was 73%.

As to `N[C@@H]1C[C@@H](F)CN(c2ccn3ncc(C(=O)Nc4cn([C@H]5CC[C@H](CN6CCN(c7ccc8c(c7)C(=O)N(C7CCC(=O)NC7=O)C8=O)CC6)CC5)nc4C(F)F)c3n2)C1` (stereo partly drawn) [Compound P-26], the IC50 at IRAK4 [1] is less than 0.5 nM. Further, on IRAK4 [2], the EC50 was 6 nM and the “ALE THP1 HTRF YMIN” value came to 29%.

For the compound `N#Cc1nn([C@H]2CC[C@H](CN3CCN(c4ccc5c(c4)C(=O)N(C4CCC(=O)NC4=O)C5=O)CC3)CC2)cc1NC(=O)c1cnn2ccc(N3CCNCC3)nc12` (stereo partly drawn) [Compound P-6, N-[3-Cyano-1-[4-[[4-[2-(2,6-dioxo-3-piperidyl)-1,3-dioxo-isoindolin-5-yl]piperazin-1-yl]methyl]cyclohexyl]pyrazol-4-yl]-5-piperazin-1-yl-pyrazolo[1,5-a]pyrimidine-3-carboxamide dihydrochloride], the IC50 on IRAK4 [1] stood at 8.1 nM. For the same compound, on IRAK4 [2], the EC50 worked out at 2820 nM and the “ALE THP1 HTRF YMIN” value came to 26%.

For the compound `C[C@@H]1CN(c2ccn3ncc(C(=O)Nc4cn([C@H]5CC[C@H](C(=O)NC6CCN(c7ccc8c(c7)CN(C7CCC(=O)NC7=O)C8=O)CC6)CC5)nc4C(F)F)c3n2)C[C@H](C)O1` (stereo partly drawn) [Compound P-33], at IRAK4 [1], the IC50 stood at 9.4 nM. At IRAK4 [2], a half-maximal effect (EC50) was put at 24 nM and the “ALE THP1 HTRF YMIN” value stood at 68%.

Consider `N#Cc1nn([C@H]2CC[C@H](C(=O)N3CCN(c4ccc5c(c4)C(=O)N(C4CCC(=O)NC4=O)C5=O)CC3)CC2)cc1NC(=O)c1cnn2ccc(N3CCC[C@@H](O)C3)nc12` (stereo partly drawn) [Compound P-11], for which the half-maximal inhibitory concentration (IC50) at IRAK4 [1] is 0.5 nM. In addition, on IRAK4 [2], the EC50 was greater than 10000 nM and the “ALE THP1 HTRF YMIN” value came to 74%.

As for `N#Cc1nn(C2CCC(C(=O)N3CCN(c4ccc5c(c4)C(=O)N(C4CCC(=O)NC4=O)C5=O)CC3)CC2)cc1NC(=O)c1cnn2ccc(N3C[C@H](N)C[C@@H](F)C3)nc12` (stereo partly drawn) [Compound P-8], at IRAK4 [1], the IC50 was less than 0.5 nM. Also, on IRAK4 [2], the response was half-maximal at 8.9 nM (EC50) and the “ALE THP1 HTRF YMIN” value turned out to be 33%.

For `N#Cc1nn(C2CCC(C(=O)N3CCC(c4ccc5c(c4)C(=O)N(C4CCC(=O)NC4=O)C5=O)CC3)CC2)cc1NC(=O)c1cnn2ccc(N3CCNCC3)nc12` (stereo not drawn) [Compound P-12], at IRAK4 [1], the IC50 was 0.5 nM. Besides, on IRAK4 [2], the response was half-maximal at 4280 nM (EC50) and the “ALE THP1 HTRF YMIN” value is reported as 66%.

Take `N[C@@H]1C[C@@H](F)CN(c2ccn3ncc(C(=O)Nc4cn([C@H]5CC[C@H](CCN6CCN(c7ccc8c(c7)CN(C7CCC(=O)NC7=O)C8=O)CC6)CC5)nc4C(F)F)c3n2)C1` (stereo partly drawn) [Compound P-30, N-[3-(Difluoromethyl)-1-[4-[2-[4-[2-(2,6-dioxo-3-piperidyl)-1-oxo-isoindolin-5-yl]piperazin-1-yl]ethyl]cyclohexyl]pyrazol-4-yl]-5-[(3R,5R)-3-amino-5-fluoro-1-piperidyl]pyrazolo[1,5-a]pyrimidine-3-carboxamide dihydrochloride]: the IC50 at IRAK4 [1] is less than 0.5 nM. On IRAK4 [2], the EC50 stood at 8 nM and the “ALE THP1 HTRF YMIN” value is listed as 10%.

`N#Cc1nn(C2CCC(C(=O)N3CCC(c4ccc5c(c4)C(=O)N(C4CCC(=O)NC4=O)C5)CC3)CC2)cc1NC(=O)c1cnn2ccc(N3CCNCC3)nc12` (stereo not drawn) [Compound P-10]: the IC50 at IRAK4 [1] turned out to be 1.2 nM. Moreover, on IRAK4 [2], the concentration for a half-maximal effect (EC50) was greater than 10000 nM and the “ALE THP1 HTRF YMIN” value was 73%.

The record behind these values is patent US20260327233A1, “Heteroaryl Compounds as Ligand Directed Degraders of IRAK4” (Celgene Corporation, priority 2023, published 2026).
